Source: US10946019B2, “Nurr1:RXR activating compounds for simultaneous treatment of symptoms and pathology of Parkinson's disease” (priority 2015, dated 2021)

Legend:
[1] = test system: LRRK2-G2019S mutated DAergic neurons; test: Neurite phenotypes of PD patient LRRK2-G2019S iPSc-derived DAergic neurons; assay type: cell-based, human; details: 12.5 μM for 14 days
Description: To ascertain the translational therapeutic potential of compound 3, we tested whether human midbrain-specific iPSc-derived DAergic neurons, as indicated by positive staining and qPCR for the neuronal markers MAP2, TH, FoxA2, Lmx1 and En1, can be protected from MPP+ toxicity. Compound 3 was able to double the number of surviving neurons after MPP+ exposure within 24 hours, compared to vehicle (FIGS. 72J-72L). The surviving control neurons had fewer and retreating projections, indicating compromised function (FIG. 72K) while the neurons that had received compound 3 had retained a complex network of projections and contacts (FIG. 72L). In addition, we tested compound 3 in iPSc-derived DAergic neurons from a PD patient carrying the LRRK2-G2019S mutation.

[2] = test system: C57BL/6 mice exposed to MPTP; test: Neuroprotection in the acute MPTP mouse model; assay type: in vivo
AAV-ASYN injected mice = test: Neuroprotection in the AAV-ASYN mouse model; assay type: in vivo; details: 10 mg/kg every 12 h for 2 weeks, vs vehicle
Description: Because the predictive validity of toxin-based mouse PD models for neuroprotection in humans is questionable, we proceeded to test the effect of compound 3 in a mouse model, where AAV viruses overexpressing wt alpha-synuclein (AAV-ASYN) under the chicken beta-actin promoter were unilaterally injected, combined with contralateral injections of (AAV-GFP). The same compound 3 (10 mg/kg every 12 h for 2 weeks) or vehicle treatment regimen was followed as in the toxin models.

Rat cortical neurons = test: Apoptosis of cortical neurons transfected with LRRK2-G2019S, DAPI staining; assay type: cell-based; details: rat cortical neurons co-transfected with CMV-GFP and LRRK2-G2019S
Description: (§1) We examined the neuroprotective capability of Nurr1:RXRα heterodimer activation in SHSY-5Y cells where death was induced by either the oxidative stress related H2O2 or the mitochondria complex I inhibitor MPP+ (1-methyl-4-phenylpyridinium) (FIG. 72B). […] The protection conferred by compound 3 was Nurr1-dependent, since it was abrogated by knocking-down endogenous Nurr1 mRNA (FIGS. 1E and 72D). The neuroprotective effects of compound 3 extend to damage induced by the PD-associated mutation G2019S in the Leucine-Rich Repeat Kinase 2 (LRRK2) gene, the most common genetic defect associated with clinical PD (Tofaris et al. J. Neurosci. 26:3942-3950, 2006). Rat cortical neurons, co-transfected with CMV-GFP for identification, and CMVLRRK2-G2019S cDNAs show increased apoptosis as assessed by DAPI staining, compared to control neurons co-transfected with a LRRK2 wt cDNA.

c-jun = test: Midbrain c-jun expression by qPCR after administration to mice; assay type: in vivo, mouse; details: IP compound 3, qPCR 2 hours after administration
Description: FIGS. 69A-69C show the brain penetration, half-life, and c-jun transcriptional activation of compound 3. […] Mice (n=5) were sacrificed 1, 2, 4, 8 and 24 hours after IP administration and brains were dissected 1, 2, 4, 8 and 24 hours post administration. The concentrations of the parent compound in plasma and brain were determined by LC/MSMS.
(§2) To assess the neuroprotective effect of compound 3, this compound was dosed to wt mice intraperitoneally (IP) at 10 mg/kg injections of compound 3 in Ethanol:PG:Saline 10:30:60. After 2 h and 4 h animals (n=3 per time point) were sacrificed, and their brains obtained. After extraction c-jun and tyrosine hydroxylase (TH) levels in brain extract were determined by qPCR (FIG. 1E, 1F).

[3] = test system: tyrosine hydroxylase (TH); test: Midbrain tyrosine hydroxylase expression by qPCR after administration to mice; assay type: in vivo, mouse; details: wt mice, single IP 10 mg/kg, within 4 hours
Description: as §2
Given the role of Nurr1:RXRα activation in the transcriptional regulation of DA biosynthesis genes, we tested whether compound 3 could increase DA levels in wt and ASYN transgenic mice (Tofaris et al. J. Neurosci. 26:3942-3950, 2006), which display reduced striatal DA levels after reaching adulthood. […] Aiming to model PD based on human genetic data, we also tested whether compound 3 could increase DA levels in ASYN transgenic mice. A single IP injection of compound 3 (10 mg/kg) was able increase striatal DA (t test p=0.01069) and DA metabolite levels in ASYN transgenics as well (FIG. 75C) in comparison to mice receiving vehicle.

[4] = test system: SHSY-5Y dopaminergic cells; test: MPP+ induced cell death, MTT assay; assay type: cell-based, human
Description: MPP+, eradicates approximately 75% of the cells in 24 hours. […] Naive Neuro2A cells (FIG. 2A) or SH-SY5Y neuroblastoma cells FIG. 2B,C) were cultured in RPMI 1640, 10% fetal bovine serum at 37° C. Cells were pretreated with compound 3 for 12-24 h. Subsequent change of culture medium with addition of 0, 1, 2 and 4 mM MPP+ induced cell death. MTT assays determined the relative number of surviving cells FIG. 2D).
Such assays were performed, for instance, by adding compound 46 (12.5 μM) to human origin SHSY-5Y dopaminergic cells in which death was induced by the mitochondria complex I inhibitor MPP+ (1-methyl-4-phenylpyridinium), the active metabolite of MPTP (1-methyl-4-phenyl-1,2,3,6-tetrahydropyridine). […] Most of the MPP+-treated cells receiving vehicle died, while the few surviving cells remained attached to the plate but were rounded and had lost all projections. These morphological changes indicated impaired neuronal function. On the contrary, cells treated with compound 46 appeared healthy, flattened, well-attached, and their projections remained intact.
as §1

Nurr1:RXRα heterodimer = Nurr1:RXRα heterodimer (Homo sapiens (Human), UniProt P19793); test: Nurr1:RXRα-dependent luciferase reporter (DR5-TK-Luc) transactivation assay; assay type: cell-based; details: SHSY-5Y, luciferase
Chain of Nurr1:RXRα heterodimer (P19793 whole entry): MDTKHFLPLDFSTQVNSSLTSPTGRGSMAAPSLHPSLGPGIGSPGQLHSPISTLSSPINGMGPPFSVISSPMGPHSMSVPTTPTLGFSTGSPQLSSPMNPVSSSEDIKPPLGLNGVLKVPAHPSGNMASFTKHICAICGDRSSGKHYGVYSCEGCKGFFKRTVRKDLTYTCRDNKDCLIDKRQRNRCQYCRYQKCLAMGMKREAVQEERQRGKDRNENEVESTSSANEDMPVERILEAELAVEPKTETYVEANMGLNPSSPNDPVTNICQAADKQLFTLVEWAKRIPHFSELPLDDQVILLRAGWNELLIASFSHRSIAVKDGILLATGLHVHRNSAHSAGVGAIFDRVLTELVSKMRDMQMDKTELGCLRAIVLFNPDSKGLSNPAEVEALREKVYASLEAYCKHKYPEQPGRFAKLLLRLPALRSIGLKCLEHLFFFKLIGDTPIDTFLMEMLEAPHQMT
Chain of Nurr1:RXRα heterodimer (P43354 whole entry partner): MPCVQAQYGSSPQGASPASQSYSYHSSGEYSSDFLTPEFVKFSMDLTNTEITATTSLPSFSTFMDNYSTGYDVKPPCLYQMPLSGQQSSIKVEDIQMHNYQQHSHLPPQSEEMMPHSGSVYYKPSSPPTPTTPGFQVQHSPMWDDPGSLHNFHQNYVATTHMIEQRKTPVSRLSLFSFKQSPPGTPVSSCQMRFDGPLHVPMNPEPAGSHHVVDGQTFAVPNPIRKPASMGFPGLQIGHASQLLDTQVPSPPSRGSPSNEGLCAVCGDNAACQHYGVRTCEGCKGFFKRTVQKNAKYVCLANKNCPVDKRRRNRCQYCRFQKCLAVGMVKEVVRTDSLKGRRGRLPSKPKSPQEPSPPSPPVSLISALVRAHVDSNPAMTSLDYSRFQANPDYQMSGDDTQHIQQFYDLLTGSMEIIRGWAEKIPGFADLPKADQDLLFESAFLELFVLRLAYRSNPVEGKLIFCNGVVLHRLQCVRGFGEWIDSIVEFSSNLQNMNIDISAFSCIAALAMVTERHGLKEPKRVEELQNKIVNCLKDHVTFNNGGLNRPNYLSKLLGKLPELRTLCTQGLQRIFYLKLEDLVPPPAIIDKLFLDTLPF
Description: The in vitro transactivation assay determined the capacity of the compounds of the invention to activate the Nurr1:RXR heterodimers. Naive SHSY-5Y cells were transiently co-transfected, using Lipofectamine 2000 (Invitrogen), with a plasmid expressing the human receptor Nurr1, a plasmid expressing the RXR human receptor (RXRα or RXRγ receptor) and a reporter plasmid DR5-TK-Luc. […] After incubation overnight, the expression of luciferase was measured (FIG. 1A).

C=CCc1c(N(C)c2ccc(C(=O)O)cc2)nc(-c2ccccc2)nc1C(F)(F)F [Example 3, 4-((5-allyl-2-phenyl-6-(trifluoromethyl)pyrimidin-4-yl)(methyl)amino)benzoic acid]
increase of neurite branching [1]: 650%
increase of neurite length [1]: 83%
increase of neurite number [1]: 38%
remaining SN axonal terminals in the striatum ([2]; 10 mg/kg IP every 12 hours): doubling
increase of TH(+) midbrain neuron survival ([2]; 10 mg/kg IP every 12 hours for 6 days, stereology): 31%
improvement of motor coordination (accelerating rotarod) ([2]; 10 mg/kg IP every 12 hours for 6 days, vs vehicle): > 100%
neuroprotection with once-a-day injection regimen ([2]; 20 mg/kg once a day): ineffective
increase in number of surviving neuronal bodies (SNpc) ([2]; C57/BL6, IP 10 mg/kg every 12 hours for 8 days): 33.5%
number of NeuN(+) midbrain neurons (AAV-ASYN injected mice): increased
increase of TH(+) midbrain neurons (AAV-ASYN injected mice; listed as Compound 3): 48%
increase of TH(+) midbrain neurons (AAV-ASYN injected mice; listed as compound 3): about 47%
apoptosis induced by LRRK2-G2019S (Rat cortical neurons): reduced apoptosis to control levels
midbrain c-jun expression (c-jun): increased
TH gene expression in the midbrain [3]: increased
cell survival against MPP+ ([4]; 12.5 μM, varying concentrations of MPP+): significantly increased cell survival
number of surviving cells after MPP+ ([4]; pretreated 12-24 h, MPP+ 24 hours, MTT): approximately doubles
activation of Nurr1:RXRα heterodimers (Nurr1:RXRα heterodimer): activated
